Laboratory results: ChEMBL document CHEMBL5724709, “EUbOPEN Chemogenomics Library - IncuCyte” (2024)

Columns and labels:
Assay type in all cases: toxicity, cell-based
U2OS = experiment: Incucyte cell viability with U2OS; conditions: human, 24 h, 10 µM, compound concentration 10 uM
HEK-293T = experiment: Incucyte cell viability with HEK293T; conditions: human, 24 h, 10 µM, compound concentration 10 uM
Fibroblast = experiment: Incucyte cell viability with human fibroblast; conditions: 24 h, 10 µM, compound concentration 10 uM
Also: unitless GR value; below 1 slowed growth and below 0 cell loss.

Row | Structure (SMILES) | Growth Rate (U2OS; replicate number 1) | Growth Rate (U2OS; replicate number 2) | Growth Rate (HEK-293T; replicate number 1) | Growth Rate (HEK-293T; replicate number 2) | Growth Rate (Fibroblast; replicate number 1) | Growth Rate (Fibroblast; replicate number 2)
1 | COc1cc(Nc2ncc(F)c(Nc3ccc4c(n3)NC(=O)C(C)(C)O4)n2)cc(OC)c1OC [R-406] | -0.31 | -0.21 | 0.1 | 0.27 | -0.02 | -0.68
2 | O=C(NCCCn1ccnc1)c1cc2nc(-c3ccccc3)cc(-c3ccccc3)n2n1 | 0.13 | 0.75 | 0.48 | 0.98 | 0.96 | 1
3 | CC(C)c1cc(C(=O)N2Cc3ccc(CN4CCN(C)CC4)cc3C2)c(O)cc1O [ONALESPIB] | -0.07 | 0.05 | -0.26 | -0.15 | 0.29 | 0.25
4 | C[C@]12CC[C@@H]3c4ccc(O)cc4C[C@@H](CCCCCCCCC[S+]([O-])CCCC(F)(F)C(F)(F)F)[C@H]3[C@@H]1CC[C@@H]2O (some centres not stated) [FULVESTRANT] | 0.86 | 0.65 | 0.5 | 0.53 | 1 | –
5 | COC[C@@H]1CCCN1S(=O)(=O)c1ccc2c(c1)C(=O)C(=O)N2 | 1 | – | 0.88 | 1 | 0.45 | 0.8
6 | Cc1ncccc1-c1cnc(NCc2c(F)ccc3c2CCO3)n2cnnc12 | 1 | 0.88 | 0.64 | 1 | 0.59 | 0.1
7 | CC(C)N(CCCNC(=O)Nc1ccc(C(C)(C)C)cc1)C[C@H]1O[C@@H](n2ccc3c(N)ncnc32)[C@H](O)[C@@H]1O | 1 | 0.59 | 0.74 | 0.84 | 1 | –
8 | C[C@@H]1CN(c2ncc(Cl)c(Nc3ccc4c(c3)n(CCC(C)(C)O)c(=O)n4C)n2)C[C@H](C)C1(F)F | 0.72 | 0.69 | 0.18 | 0.21 | 0.91 | -0.13
9 | C/C=C1\NC(=O)[C@H]2CSSCC/C=C/[C@H](CC(=O)N[C@H](C(C)C)C(=O)N2)OC(=O)[C@H](C(C)C)NC1=O [ROMIDEPSIN] | 1 | 0.29 | 0.73 | – | 0.96 | -0.41
10 | Cc1nc(-c2cnc(NC(C)C)n(C)c2=O)ccc1Oc1ccnc(-c2cnn(C)c2)c1 [VIMSELTINIB] | 0.42 | 0.46 | 0.39 | 0.02 | 0.29 | -0.35
11 | Cc1cc(Cn2c(=O)n(Cc3cnc(C)s3)c(=O)c3cc(S(=O)(=O)NC4(C)CC4)ccc32)n(C)n1 | 0.64 | 0.54 | 0.6 | 0.74 | 0.47 | 0.68
12 | CC#C[C@]1(O)CC[C@H]2[C@@H]3CCC4=CC(=O)CCC4=C3[C@@H](c3ccc(N(C)C)cc3)C[C@@]21C [MIFEPRISTONE] | 0.84 | 0.66 | 0.49 | 1 | 1 | –
13 | CCC(NC(=O)C(CC(C)C)NC(=O)OCc1ccccc1)C(=O)C(=O)NCCCN1CCOCC1.O=C(O)C(F)(F)F (configuration not stated) | 1 | – | 0.73 | 0.97 | 1 | –
14 | Cc1ncsc1-c1ccc(CNC(=O)[C@@H]2C[C@@H](O)CN2C(=O)[C@@H](NC(=O)COCCOCCOCCNC(=O)C[C@@H]2N=C(c3ccc(Cl)cc3)c3c(sc(C)c3C)-n3c(C)nnc32)C(C)(C)C)cc1 | -0.19 | 0.31 | 0.01 | 0.16 | 0.23 | -0.26
